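A five-concentration, 48-hour dose response in 96-well plates underlies each endpoint, interpolated linearly between surrounding concentrations. TGI: total growth inhibition.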
Test system: P388/ADR leukemia
Test: NCI tumour cell line growth inhibition, 48 h

Compound: C=C(C)C(=O)NC(N)=NC#N
- TGI: 27.7 µM
